{"source": "patent US12497614B2", "about": "“Compositions and methods for editing beta-globin for treatment of hemaglobinopathies” (Vertex Pharmaceuticals Incorporated, priority 2020, dated 2025)", "key": {"[1]": {"system": "HBB gene locus in CD34+ HSPCs", "assay": "HDR efficiency with DNA-PK inhibitors for editing the HBB gene in CD34+ HSPCs; NGS (Example 4)", "type": "cell-based, human", "conditions": "for % HDR / % INDELs: 48 hours", "protocol": "The cells were transduced with AAV donor template for 1 hour at 37° C. prior to electroporation. AAV-encoded homology donor template referred to as “AAV.310”, which is identified by sequence in Table 8. The AAV.310 donor template encodes a SCD mutation, specifically valine at the 6th codon downstream the HBB start codon (E6V). The cells were treated with AAV at a dose of 10,000 MOI.\nEdited cells were evaluated for viability using trypan blue, and for incorporation of gene-edits at 2 days post-electroporation. The efficiency of HDR repair for introducing an E6V mutation in the HBB gene was quantified by NGS assay as described in Example 1, and the frequency of INDELs induced at the T107 cut site was also evaluated by NGS analysis.\nThe INDELs species identified in edited cells were further evaluated to determine frequency of repair by NHEJ or MMEJ repair pathways. An INDEL of ±1 nt was considered due to NHEJ repair; a deletion of −9 nt was considered due to MMEJ repair based on the microhomology present on either side of the T107 cut site. Based on percentage of total reads corresponding to these INDEL species, the ratio of gene edits due to NHEJ and MMEJ repair was evaluated. […] Thus, reduced frequency of INDELs with treatment of compound 296 or i53 is largely due to suppression of the NHEJ repair pathway."}, "[2]": {"system": "CD34+ HSPCs", "assay": "Cell growth and viability (trypan blue) of edited CD34+ HSPCs during differentiation (Example 5)", "conditions": "day 0 to day 18 post-editing; inhibitor 1 or 3 μM, i53 1 μg mRNA; data not shown", "protocol": "Briefly, frozen CD34+ HSPCs isolated from Plerixafor mobilized peripheral blood, obtained from healthy human donors were thawed. The cells were seeded in CD34 cell media at a cell density of 2×10^5 cells/mL. Cells were cultured at 37° C. under normoxic conditions (i.e., oxygen 20%). Gene-editing was performed following two days of in vitro culture. For editing, 5×10^5 CD34+ HSPCs were electroporated with RNP containing 200 μg/ml Cas9 and 200 μg/ml T107 sgRNA. […] The cells were transduced with AAV.310, 1 hour prior to electroporation, at a dose of 10,000 MOI. The cells were plated in CD34 cell medium containing Compound 296 or Compound 984 immediately following the electroporation, at a concentration of 1 μM or 3 μM for 48 hours. […] Post electroporation cells were resuspended in CD34 cell medium at a density of 2-5×10^5 cells/ml and incubated at 37° C. for 48 hours.\nFollowing editing, cells were differentiated to erythrocytes. Briefly, cells were plated in fresh CD34 media at a density of 2×10^5 cells/mL, and re-plated at similar density in fresh CD34 media on days 3 and 5 post-editing. On day 7 and 10 post-editing, the cells were incubated in Phase II media at a density of 2.5×10^5 and 1×10^6 cells/mL respectively. On day 12 post-editing, the cells were incubated in Phase III media at a density of 1×10^6 cells/mL. On day 14 cells were plated at a density of 2×10^6 cells/ml in Phase III media and maintained till day 18 at 37° C. Cell growth was measured at various time points between day 0 and day 18 post-editing, and the percentage of viable cells was measured by staining with tryphan blue."}, "[3]": {"system": "CD34+ HSPCs", "assay": "Erythrocyte functionality: enucleation and cell-surface markers by flow cytometry (Example 5)", "type": "cell-based, human", "conditions": "T107 RNP+AAV.310 alone or combined with the inhibitor", "protocol": "(§1) Following editing, cells were differentiated to erythrocytes.\nThe ability of edited cells to differentiate to functional erythrocytes was assessed by determining expression of erythrocyte-associated cell surface markers and enucleation using flow cytometry on day 12 and 18 post editing. Briefly, 4×10^5 cells were obtained, and half were stained for erythrocyte cell-surface markers and half were used for detection of enucleation. For staining cell-surface markers, the cells were incubated in PBS containing 1% human serum albumin (PBS-A) and an antibody cocktail of anti-CD233(BRIC6-Band3)-FITC, anti-CD71-PE, anti-CD235a(GlyA)-PE/Cy7, and anti-CD49d (α4)-VioBlue. For detection of enucleation, 2 drops of NucRed nuclear staining reagent was added to 1 mL PBS-A, and 100 μL was added to plated cells. Following incubation, both cell samples were labeled with Sytox Blue solution (1:1000 dilution in PBS-A) for live/dead analysis. Samples were then assessed by flow cytometry"}, "[4]": {"system": "HBB gene locus and mRNA transcribed from HBB in CD34+ HSPCs", "assay": "Editing efficiency in genomic DNA and in HBB mRNA (Example 5)", "type": "cell-based, human", "conditions": "genomic DNA, 48 hours post electroporation; 1 μM or 3 μM", "protocol": "At 48 hours post electroporation genomic DNA was isolated from the edited cells and HDR to introduce the sickle mutation and INDEL frequencies were evaluated using next gene sequencing and computational analysis. On day 10 of differentiation, incorporation of the SCD mutation and frequency of INDELs present in mRNA transcribed from the HBB gene locus of edited cells was determined using RNA amplicon sequencing."}, "[5]": {"system": "CD34+ HSPCs", "assay": "Globin and hemoglobin analysis by HPLC on day 18 of differentiation (Example 5)", "type": "cell-based, human", "conditions": "T107 RNP+AAV.310 alone or combined with the inhibitor", "protocol": "as §1\nAdditionally, on day 18 post-editing, expression of globin monomers was assessed in differentiated cells by HPLC as described in Example 3. […] Accordingly, the editing was sufficient to both introduce the SCD mutation in HBB and result in expression of sickle globin.\nFurthermore, production of hemoglobin tetramers was also evaluated by HPLC. The analysis included quantification of HbS tetramer containing sickle-globin (α2β(E6V)2), HbF tetramer (α2γ2), HbA (α2β2), and HbA2 (α2δ2) produced by edited cells. […] Thus, the editing was also sufficient to alter hemoglobin output following in vitro differentiation."}, "[6]": {"system": "genomic sites undergoing off-target cleavage", "assay": "GUIDE-Seq screen of candidate off-target sites", "type": "cell-based, human", "from_the_text": "The second approach was to screen candidate off-target sites using GUIDE-Seq (see, e.g., Tsai et al (2015) NAT. BIOTECHNOL. 33:187). Based on this approach, the following number of genomic sites were identified as undergoing off-target cleavage per each gRNA: • (i) 36 GUIDE-Seq off-target sites for R02 gRNA; • (ii) 12 GUIDE-Seq off-target sites for […]; and • (iii) 43 GUIDE-Seq off-target sites for T223 gRNA."}, "[7]": {"system": "HBB gene in CD34+ HSPCs", "assay": "Comparison of guides targeting intron 1 of HBB with AAV donor templates (Example 8)", "type": "cell-based, human", "conditions": "with each of AAV.309, AAV.310, AAV.311; day 2 post-editing", "protocol": "Healthy donor CD34+ HSPCs derived from plerixafor-mobilized peripheral blood were cultured as described in Example 1 for two days prior to editing. Editing was performed using 1×10^6 CD34+ HSPCs per treatment group. The cells were electroporated with RNP containing the following 20 μg SpCas9 and 20 μg T107 sgRNA, 20 μg T223 sgRNA, or 20 μg R02 sgRNA. […] The cells were transduced with AAV6 donor templates encoding a SCD mutation (AAV.309; AAV.310; AAV.311) by incubating the cells with AAV at a dose of 10,000 MOI for one hour prior to electroporation. Control cells were transduced with AAV only and electroporated in the absence of RNP.\nOn day 2 post-editing, the efficiency of HDR repair for inducing a SCD mutation in the HBB gene was quantified by NGS assay as described in Example 1."}, "[8]": {"conditions": "T107 RNP + AAV.310 + 0.012 μM compound"}, "[9]": {"conditions": "T107 RNP + AAV.310 + 0.037 μM compound"}, "[10]": {"conditions": "T107 RNP + AAV.310 + 0.04 μM compound"}, "[11]": {"conditions": "T107 RNP + AAV.310 + 3.3 μM compound"}, "[12]": {"conditions": "T107 RNP + AAV.310 + 10 μM compound"}}, "note": "Strand notation (5' to 3'): a small letter for the sugar, then the base; units joined by * are phosphorothioate-linked, units joined directly phosphodiester-linked; [ ] holds rarer units or linkages, { } end groups; capitals alone tell only the bases. m = 2'-O-methyl; r = 2'-OH (RNA)", "data": [{"molecule": "CNC(=O)c1ccnc2c([C@H](C)CNc3cc(-c4cnc(C)nc4)ncn3)cccc12", "note": "[Compound 296]", "values": [{"measurement": "% HDR", "setting": "[1]; [8]", "result": 40, "unit": "%"}, {"measurement": "% INDELs", "setting": "[1]; [8]", "result": 45, "unit": "%"}, {"measurement": "% HDR", "setting": "[1]; [9]", "result": 39, "unit": "%"}, {"measurement": "% INDELs", "setting": "[1]; [9]", "result": 46, "unit": "%"}, {"measurement": "% HDR", "setting": "[1]; [10]", "result": 40, "unit": "%"}, {"measurement": "% INDELs", "setting": "[1]; [10]", "result": 42, "unit": "%"}, {"measurement": "% HDR", "setting": "[1]; [11]", "result": 55, "unit": "%"}, {"measurement": "% INDELs", "setting": "[1]; [11]", "result": 27, "unit": "%"}, {"measurement": "% HDR", "setting": "[1]; [12]", "result": 57, "unit": "%"}, {"measurement": "% INDELs", "setting": "[1]; [12]", "result": 25, "unit": "%"}, {"measurement": "reduction of the frequency of INDELs at the T107 cut site compared to control cells", "setting": "[1]; T107 RNP+AAV.310 with DNA-PK inhibitor", "result": "approximately 1.6 fold"}, {"measurement": "INDEL species due to MMEJ repair (deletion of −9 nt)", "setting": "[1]; T107 RNP+AAV.310, Compound 296 at 10 μM, i53 at 1 μg mRNA", "result": "no substantial reduction"}, {"measurement": "decrease in INDELs due to NHEJ repair (INDEL of ±1 nt)", "setting": "[1]; T107 RNP+AAV.310, Compound 296 at 10 μM, i53 at 1 μg mRNA, vs DMSO", "result": "≤ 3", "unit": "fold"}, {"measurement": "cell growth over time or percent viability vs T107 RNP+AAV.310 edited cells", "setting": "[2]", "result": "No difference"}, {"measurement": "levels of enucleation vs control cells", "setting": "[3]", "result": "comparable"}, {"measurement": "frequency of INDELs at the T107 cut site compared to cells edited with T107 RNP+AAV.310 only", "setting": "[4]", "result": "decreased"}, {"measurement": "level of HDR repair compared to cells edited with T107 RNP+AAV.310 only", "setting": "[4]", "result": "increased"}, {"measurement": "HbA production compared to control cells", "setting": "[5]", "result": "decreased"}, {"measurement": "HbS production compared to control cells", "setting": "[5]", "result": "increased"}, {"measurement": "expression of sickle-globin compared to control cells", "setting": "[5]", "result": "increased"}]}, {"molecule": "R02 gRNA: exon-targeting gRNA for exon 1 of HBB, spacer SEQ ID NO: 14, sgRNA SEQ ID NO: 15 (nucleic acid) guide: mC*mU*mU*rGrCrCrCrCrArCrArGrGrGrCrArGrUrArArGrUrUrUrUrArGrArGrCrUrArGrArArArUrArGrCrArArGrUrUrArArArArUrArArGrGrCrUrArGrUrCrCrGrUrUrArUrCrArArCrUrUrGrArArArArArGrUrGrGrCrArCrCrGrArGrUrCrGrGrUrGrCmU*mU*mU*rU", "values": [{"measurement": "GUIDE-Seq off-target sites (number)", "setting": "[6]", "result": 36}]}, {"molecule": "T223 gRNA: intron-targeting gRNA, spacer SEQ ID NO: 51, sgRNA SEQ ID NO: 52 (nucleic acid) guide: mU*mA*mA*rGrGrArGrArCrCrArArUrArGrArArArCrUrGrUrUrUrUrArGrArGrCrUrArGrArArArUrArGrCrArArGrUrUrArArArArUrArArGrGrCrUrArGrUrCrCrGrUrUrArUrCrArArCrUrUrGrArArArArArGrUrGrGrCrArCrCrGrArGrUrCrGrGrUrGrCmU*mU*mU*rU", "values": [{"measurement": "GUIDE-Seq off-target sites (number)", "setting": "[6]", "result": 43}, {"measurement": "levels of HDR for introducing the SCD mutation", "setting": "[7]", "result": "similar"}]}, {"molecule": "T107 gRNA: intron-targeting gRNA, spacer SEQ ID NO: 3, sgRNA SEQ ID NO: 4 (nucleic acid) guide: mU*mC*mC*rArCrArUrGrCrCrCrArGrUrUrUrCrUrArUrGrUrUrUrUrArGrArGrCrUrArGrArArArUrArGrCrArArGrUrUrArArArArUrArArGrGrCrUrArGrUrCrCrGrUrUrArUrCrArArCrUrUrGrArArArArArGrUrGrGrCrArCrCrGrArGrUrCrGrGrUrGrCmU*mU*mU*rU", "values": [{"measurement": "GUIDE-Seq off-target sites (number)", "setting": "[6]", "result": 12}, {"measurement": "levels of HDR for introducing the SCD mutation", "setting": "[7]", "result": "similar"}]}]}
